This note sets out measurements from patent US9409966B2, “Glucagon-like peptide-1 derivatives and their pharmaceutical use” (priority 2007, dated 2016).

*1 amine or outer side, *2 acyl side, *3 side chain or, on linkers, in order; H or OH if unused. Where a SMILES comes first, the peptide text is derived from it. Side-chain parts run from the residue outwards. [ ]: non-standard residue; d: D form. The star is where a group is joined. X2 = O=C(O)CCCCCCCCCCCCCCCCC(=O)N[C@@H](CCC(=O)NCCOCCOCC(=O)NCCOCCOCC(=O)N[C@@H](CCCCN*)C(=O)O)C(=O)O; X1 = O=C(CCCCCCCCCCCCCCCc1nnn[nH]1)NS(=O)(=O)CCCC(=O)*; C20 diacid = O=C(O)CCCCCCCCCCCCCCCCCCC(=O)*; γGlu = O=C(O)[C@H](CCC(=O)[*:2])N[*:1]; βAsp = O=C(O)[C@H](CC(=O)[*:2])N[*:1]; AEEA = NCCOCCOCC(=O)O; Aib = CC(C)(N)C(=O)O; Inp = O=C(O)C1CCNCC1; GABA = NCCCC(=O)O

The target of the data set is human serum albumin (HSA) (Homo sapiens, UniProt P02768). The data set can be described thus: Albumin binding affinity, competition scintillation proximity assay (SPA). For orientation: In a scintillation proximity assay essentially only radioactivity close to the scintillant gives light.
human serum albumin (HSA), sequence (P02768 25-609): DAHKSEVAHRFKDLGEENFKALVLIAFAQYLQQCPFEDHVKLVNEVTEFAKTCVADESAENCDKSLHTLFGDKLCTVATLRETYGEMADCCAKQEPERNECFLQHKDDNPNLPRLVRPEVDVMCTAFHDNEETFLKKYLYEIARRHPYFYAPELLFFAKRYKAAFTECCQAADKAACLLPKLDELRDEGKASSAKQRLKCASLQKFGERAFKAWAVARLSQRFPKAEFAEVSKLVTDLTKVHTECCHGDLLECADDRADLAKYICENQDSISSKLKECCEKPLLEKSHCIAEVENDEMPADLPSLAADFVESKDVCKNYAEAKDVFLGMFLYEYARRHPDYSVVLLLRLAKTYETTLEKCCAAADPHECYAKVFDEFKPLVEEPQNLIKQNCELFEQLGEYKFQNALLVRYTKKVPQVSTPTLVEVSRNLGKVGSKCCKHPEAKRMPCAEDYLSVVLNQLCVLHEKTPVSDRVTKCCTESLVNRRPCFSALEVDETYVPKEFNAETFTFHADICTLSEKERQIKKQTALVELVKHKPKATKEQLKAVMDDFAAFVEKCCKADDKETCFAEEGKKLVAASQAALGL

Procedure: Streptavidin-SPA beads (GE Healthcare RPNQ0009) were incubated with biotinylated HSA for 5 hours. The beads were washed with buffer to remove unbound HSA. […] After 20 hours of gentle rocking at room temperature the plates were centrifuged and counted on a TopCounter.

On to `CC[C@H](C)[C@H](NC(=O)[C@H](Cc1cccc(C(F)(F)F)c1)NC(=O)[C@H](CCC(=O)O)NC(=O)[C@H](CCCNC(=N)N)NC(=O)[C@H](C)NC(=O)[C@H](C)NC(=O)[C@H](CCC(N)=O)NC(=O)[C@H](CCC(=O)O)NC(=O)[C@H](CCC(=O)O)NC(=O)[C@H](CC(C)C)NC(=O)[C@H](Cc1ccc(O)cc1)NC(=O)[C@H](CO)NC(=O)[C@H](CO)NC(=O)[C@@H](NC(=O)[C@H](CC(=O)O)NC(=O)[C@H](CO)NC(=O)[C@@H](NC(=O)[C@H](Cc1ccccc1)NC(=O)[C@@H](NC(=O)CNC(=O)[C@H](CCC(=O)O)NC(=O)[C@H](C)NC(=O)CCc1c[nH]cn1)[C@@H](C)O)[C@@H](C)O)C(C)C)C(=O)N[C@@H](C)C(=O)N[C@@H](Cc1c[nH]c2ccccc12)C(=O)N[C@@H](CC(C)C)C(=O)N[C@H](C(=O)N[C@@H](CCCNC(=N)N)C(=O)NCC(=O)N[C@@H](CCCNC(=N)N)C(=O)N[C@@H](CCCCNC(=O)COCCOCCNC(=O)COCCOCCNC(=O)C[C@@H](NC(=O)C1CCN(C(=O)CCCCCCCCCCCCCCCCC(=O)O)CC1)C(=O)O)C(N)=O)C(C)C` [Example 3, N-epsilon37-[2-(2-[2-(2-[2-(2-((R)-3-[1-(17-Carboxyheptadecanoyl)piperidin-4-ylcarbonylamino]3-carboxypropionylamino)ethoxy)ethoxy]acetylamino)ethoxy]ethoxy)acetyl][DesaminoHis 7,Glu22,Arg26,Arg34,Phe(m-CF3)28]GLP-1-(7-37)amide], for which the concentration giving a half-maximal response (EC50) (commonly the concentration that produces a half-maximal response) was 1.5 to 2 µM. Turning to `CC[C@H](C)[C@H](NC(=O)[C@H](Cc1ccccc1)NC(=O)[C@H](CCC(=O)O)NC(=O)[C@H](CCCNC(=N)N)NC(=O)[C@H](C)NC(=O)[C@H](C)NC(=O)[C@H](CCC(N)=O)NC(=O)[C@H](CCC(=O)O)NC(=O)[C@H](CCC(=O)O)NC(=O)[C@H](CC(C)C)NC(=O)[C@H](Cc1ccc(O)cc1)NC(=O)[C@H](CO)NC(=O)[C@H](CO)NC(=O)[C@@H](NC(=O)[C@H](CC(=O)O)NC(=O)[C@H](CO)NC(=O)[C@@H](NC(=O)[C@H](Cc1ccccc1)NC(=O)[C@@H](NC(=O)CNC(=O)[C@H](CCC(=O)O)NC(=O)C(C)(C)NC(=O)[C@@H](N)Cc1c[nH]cn1)[C@@H](C)O)[C@@H](C)O)C(C)C)C(=O)N[C@@H](CCCCNC(=O)COCCOCCNC(=O)COCCOCCNC(=O)C[C@H](NC(=O)C1CCN(C(=O)CCCCCCCCCCCCCCCCCCC(=O)O)CC1)C(=O)O)C(=O)N[C@@H](Cc1c[nH]c2ccccc12)C(=O)N[C@@H](CC(C)C)C(=O)N[C@H](C(=O)N[C@@H](CCCCN)C(=O)NCC(=O)N[C@@H](CCCNC(=N)N)C(=O)NCC(=O)O)C(C)C` [Example 4, N-epsilon30{2-[2-(2-{2-[2-((S)-3-carboxy-3-{[1-(19-carboxynonadecanoyl)piperidine-4-carbonyl]amino}propionylamino)ethoxy]ethoxy}acetylamino)ethoxy]ethoxy}acetyl [Aib8,Glu22,Arg26,Lys30]GLP-1-(7-37)], the EC50 lay in the range of 0.2 to 0.4 µM. Turning to `CC[C@H](C)[C@H](NC(=O)[C@H](Cc1ccccc1)NC(=O)[C@H](CCC(=O)O)NC(=O)[C@H](CCCNC(=N)N)NC(=O)[C@H](C)NC(=O)[C@H](C)NC(=O)[C@H](CCC(N)=O)NC(=O)[C@H](CCC(=O)O)NC(=O)[C@H](CCC(=O)O)NC(=O)[C@H](CC(C)C)NC(=O)[C@H](Cc1ccc(O)cc1)NC(=O)[C@H](CO)NC(=O)[C@H](CO)NC(=O)[C@@H](NC(=O)[C@H](CC(=O)O)NC(=O)[C@H](CO)NC(=O)[C@@H](NC(=O)[C@H](Cc1ccccc1)NC(=O)[C@@H](NC(=O)CNC(=O)[C@H](CCC(=O)O)NC(=O)C(C)(C)NC(=O)[C@@H](N)Cc1c[nH]cn1)[C@@H](C)O)[C@@H](C)O)C(C)C)C(=O)N[C@@H](C)C(=O)N[C@@H](CCCCNC(=O)COCCOCCNC(=O)COCCOCCNC(=O)C[C@H](NC(=O)C1CCN(C(=O)CCCCCCCCCCCCCCCCCCC(=O)O)CC1)C(=O)O)C(=O)N[C@@H](CC(C)C)C(=O)N[C@H](C(=O)N[C@@H](CCCNC(=N)N)C(=O)NCC(=O)N[C@@H](CCCNC(=N)N)C(=O)NCC(=O)O)C(C)C` [Example 6, N-epsilon31-(2-{2-[2-(2-{2-[2-((S)-3-Carboxy-3-{[1-(19-carboxy-nonadecanoyl)piperidine-4-carbonyl]amino}propionylamino)ethoxy]ethoxy}acetylamino)ethoxy]ethoxy}acetyl)[Aib8,Glu22,Arg26,Lys31,Arg34]GLP-1-(7-37)] (H-H[Aib]EGTFTSDVSSYLEEQAAREFIAK([AEEA-AEEA-βAsp-Inp-C20 diacid])LVRGRG-OH), the half-maximal effective concentration (EC50) lay within 0.2 to 0.4 µM. Turning to `CC[C@H](C)[C@H](NC(=O)[C@H](Cc1ccccc1)NC(=O)[C@H](CCC(=O)O)NC(=O)[C@H](CCCNC(=N)N)NC(=O)[C@H](C)NC(=O)[C@H](C)NC(=O)[C@H](CCC(N)=O)NC(=O)[C@H](CCC(=O)O)NC(=O)[C@H](CCC(=O)O)NC(=O)[C@H](CC(C)C)NC(=O)[C@H](Cc1ccc(O)cc1)NC(=O)[C@H](CO)NC(=O)[C@H](CO)NC(=O)[C@@H](NC(=O)[C@H](CC(=O)O)NC(=O)[C@H](CO)NC(=O)[C@@H](NC(=O)[C@H](Cc1ccccc1)NC(=O)[C@@H](NC(=O)CNC(=O)[C@H](CCC(=O)O)NC(=O)C(C)(C)NC(=O)[C@@H](N)Cc1c[nH]cn1)[C@@H](C)O)[C@@H](C)O)C(C)C)C(=O)N[C@@H](CCC(=O)O)C(=O)N[C@@H](Cc1c[nH]c2ccccc12)C(=O)N[C@@H](CC(C)C)C(=O)N[C@H](C(=O)N[C@@H](CCCCN)C(=O)NCC(=O)N[C@@H](CCCNC(=N)N)C(=O)N1CCC[C@H]1C(=O)N[C@@H](CCCCNC(=O)COCCOCCNC(=O)CC[C@H](NC(=O)CC[C@H](NC(=O)CCCNC(=O)CCCS(=O)(=O)NC(=O)CCCCCCCCCCCCCCCc1nnn[nH]1)C(=O)O)C(=O)O)C(=O)O)C(C)C` [Example 14, [Aib8,Glu22,Arg26,Glu30,Pro37]GLP-1-(7-37)Lys [2-(2-{2-[4-Carboxy-4-(4-carboxy-4-{4-[4-(16-1H-tetrazol-5-yl-hexadecanoylsulfamoyl)butyrylamino]butyrylamino}butyrylamino)butyrylamino]ethoxy}ethoxy)acetyl]] (H-H[Aib]EGTFTSDVSSYLEEQAAREFIEWLVKGRPK([AEEA-γGlu-γGlu-GABA-X1])-OH; N-terminus and C-terminus assumed), the EC50 at 20 hours (human, pH 7.4) fell in the range of 0.15 to 0.2 µM. `CC[C@H](C)[C@H](NC(=O)[C@H](Cc1ccccc1)NC(=O)[C@H](CCC(=O)O)NC(=O)[C@H](CCCNC(=N)N)NC(=O)[C@H](C)NC(=O)[C@H](C)NC(=O)[C@H](CCC(N)=O)NC(=O)[C@H](CCC(=O)O)NC(=O)[C@H](CCC(=O)O)NC(=O)[C@H](CC(C)C)NC(=O)[C@H](Cc1ccc(O)cc1)NC(=O)[C@H](CO)NC(=O)[C@H](CO)NC(=O)[C@@H](NC(=O)[C@H](CC(=O)O)NC(=O)[C@H](CO)NC(=O)[C@@H](NC(=O)[C@H](Cc1ccccc1)NC(=O)[C@@H](NC(=O)CNC(=O)[C@H](CCC(=O)O)NC(=O)C(C)(C)NC(=O)[C@@H](N)Cc1c[nH]cn1)[C@@H](C)O)[C@@H](C)O)C(C)C)C(=O)N[C@@H](C)C(=O)N[C@@H](Cc1c[nH]c2ccccc12)C(=O)N[C@@H](CC(C)C)C(=O)N[C@H](C(=O)N[C@@H](CCCNC(=N)N)C(=O)NCC(=O)N[C@@H](CCCNC(=N)N)C(=O)NCCCC[C@H](NC(=O)COCCOCCNC(=O)COCCOCCNC(=O)CC[C@H](NC(=O)CCCCCCCCCCCCCCCCC(=O)O)C(=O)O)C(=O)O)C(C)C` [Example 28, N-alpha37-[2-(2-{2-[2-(2-{2-[(S)-4-Carboxy-4-(17-carboxy-heptadecanoylamino)-butyrylamino]-ethoxy}-ethoxy)-acetylamino]-ethoxy}-ethoxy)-acetyl] [Aib8,Glu22,Arg26,Arg34,epsilon-Lys37]GLP-1-(7-37)peptide] (H-H[Aib]EGTFTSDVSSYLEEQAAREFIAWLVRGR-X2) gave a 50% effective concentration (EC50) of 0.2 to 0.4 µM.
